Source: ChEMBL document CHEMBL1127230, “New non-peptide angiotensin II receptor antagonists. 2: structure - activity relationship of a series of annelated 2(1H)-pyridinones” (Bioorg Med Chem Lett, 1994)

Columns and labels:
[1] = biological target: Angiotensin II receptor (Homo sapiens) (UniProt P30556+P50052); assay: In vitro functional antagonistic affinity measured against angiotensin II receptor in paired rings of rabbit aorta; type: tissue-based; details: Oryctolagus cuniculus, target entry is the homologue from another species
[2] = biological target: T1, Type-1 angiotensin II receptor (Bos taurus, UniProt P25104); assay: Inhibition of [125I]AII binding to angiotensin II receptor of bovine adrenal cortex; type: tissue-based; details: read-out: EC50 (the source's name)
T1 sequence (P25104 whole entry): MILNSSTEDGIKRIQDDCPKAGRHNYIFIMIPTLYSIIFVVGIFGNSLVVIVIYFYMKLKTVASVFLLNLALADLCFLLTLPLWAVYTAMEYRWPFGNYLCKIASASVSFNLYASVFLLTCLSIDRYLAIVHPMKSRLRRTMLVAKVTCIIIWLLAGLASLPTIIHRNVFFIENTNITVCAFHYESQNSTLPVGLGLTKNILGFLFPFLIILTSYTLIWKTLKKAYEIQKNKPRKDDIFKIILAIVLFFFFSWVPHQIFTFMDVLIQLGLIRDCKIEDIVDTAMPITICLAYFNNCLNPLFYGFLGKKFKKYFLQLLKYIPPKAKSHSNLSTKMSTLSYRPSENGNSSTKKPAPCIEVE

[3] = system: Rattus norvegicus; assay: In vivo potency determined as dose given iv to produce reduction in angiotensin II pressor response in normotensive rats; type: functional; details: read-out: ID50 (the source's name)
[4] = system: Rattus norvegicus; assay: Tested for in vitro inhibition of specific binding of [125I]AII for bolus injection of 0.3 mg/kg lasting up to 90 min post dose; type: functional; details: 1.5 h

SMILES	pKB [1]	IC50 [2] [nM]	ED50 [3] [mg/kg]	inhibition in vivo at 0.3 mg/kg [4] [%]
O=c1c(-c2ccccc2)c(O)c2ccc([N+](=O)[O-])cc2n1Cc1ccc(-c2ccccc2-c2nn[nH]n2)cc1	7.5	–	–	–
O=c1c(-c2ccccc2)c(O)c2c(n1Cc1ccc(-c3ccccc3-c3nn[nH]n3)cc1)CCC2	7.2	–	–	–
CCCc1cc2ncn(C)c2c(=O)n1Cc1ccc(-c2ccccc2-c2nn[nH]n2)cc1	10.2	–	< 0.3	> 50
COc1ccc2c(O)c(-c3ccccc3)c(=O)n(Cc3ccc(-c4ccccc4-c4nn[nH]n4)cc3)c2c1	7.4	–	2.5	–
CCc1cc2c(O)c(-c3ccccc3)c(=O)n(Cc3ccc(-c4ccccc4-c4nn[nH]n4)cc3)c2s1	–	90	5	–
CCOc1ccc2c(O)cc(=O)n(Cc3ccc(-c4ccccc4-c4nn[nH]n4)cc3)c2c1	8.9	–	–	–
CCOc1ccc2c(O)c(-c3ccccc3)c(=O)n(Cc3ccc(-c4ccccc4-c4nn[nH]n4)cc3)c2c1	7.1	–	1.3	–
CCOc1ccc2c(O)c(-c3ccccc3)c(=O)n(Cc3ccc(-c4ccccc4C(=O)O)cc3)c2c1	7.7	1800	–	–
O=c1c(Cc2ccccc2)c(O)c2ccccc2n1Cc1ccc(-c2ccccc2-c2nn[nH]n2)cc1	7.5	–	–	–
CS(=O)(=O)c1ccc2c(O)c(-c3ccccc3)c(=O)n(Cc3ccc(-c4ccccc4-c4nn[nH]n4)cc3)c2c1	5.9	~30000	–	–
CSc1ccc2c(O)c(-c3ccccc3)c(=O)n(Cc3ccc(-c4ccccc4-c4nn[nH]n4)cc3)c2c1	6.6	600	–	–
Cc1ccc2c(O)c(-c3ccccc3)c(=O)n(Cc3ccc(-c4ccccc4-c4nnn[nH]4)cc3)c2n1	–	1250	–	–
COc1ccc2c(O)c(C(C)=O)c(=O)n(Cc3ccc(-c4ccccc4C(=O)O)cc3)c2c1	6.6	–	–	–
COc1ccc2c(O)c(-c3ccccc3)c(=O)n(Cc3ccc(-c4ccccc4C(=O)O)cc3)c2c1	6.7	9500	–	–
CCOc1ccc2c(O)c(Cc3ccccc3)c(=O)n(Cc3ccc(-c4ccccc4C(=O)O)cc3)c2c1	7.8	–	–	–
COc1ccc2c(O)c(-c3ccccc3)c(=O)n(Cc3ccc(-c4ccccc4-c4nnn[nH]4)cc3)c2c1	–	2200	–	–
COc1ccc2c(O)cc(=O)n(Cc3ccc(-c4ccccc4-c4nn[nH]n4)cc3)c2c1	8.3	–	1.08	–
CCCCc1nc(Cl)c(CO)n1Cc1ccc(-c2ccccc2C(=O)O)cc1	7.1	–	–	–

Further lines, with some results ahead:

pKB [1]	IC50 [2] [nM]	SMILES	ED50 [3] [mg/kg]	inhibition in vivo at 0.3 mg/kg [4] [%]
–	1250	O=c1c(-c2ccccc2)c(O)c2c(n1Cc1ccc(-c3ccccc3-c3nnn[nH]3)cc1)CCC2	–	–
9.1	–	CCCc1cc2ncnc-2c(O)n1Cc1ccc(-c2ccccc2-c2nn[nH]n2)cc1	0.18	–
7.4	6000	O=c1c(-c2ccccc2)c(O)c2sccc2n1Cc1ccc(-c2ccccc2-c2nn[nH]n2)cc1	3.2	–
–	500	CCOc1ccc2c(O)c(-c3ccccc3)c(=O)n(Cc3ccc(-c4ccccc4-c4nnn[nH]4)cc3)c2c1	–	–
6.4	–	CCCc1cc2nc(O)nc-2c(O)n1Cc1ccc(-c2ccccc2-c2nn[nH]n2)cc1	–	–
9.6	–	CCc1cc2c(O)cc(=O)n(Cc3ccc(-c4ccccc4-c4nn[nH]n4)cc3)c2s1	–	–
7.6	–	CCCc1cc2c(ncn2C)c(=O)n1Cc1ccc(-c2ccccc2-c2nn[nH]n2)cc1	–	–
7.2	–	CCc1ccc2c(O)c(-c3ccccc3)c(=O)n(Cc3ccc(-c4ccccc4C(=O)O)cc3)c2c1	–	–
7.2	1700	O=c1c(-c2ccccc2)c(O)c2ccccc2n1Cc1ccc(-c2ccccc2-c2nn[nH]n2)cc1	1.2	–
8.3	–	CCCCc1nc(Cl)c(CO)n1Cc1ccc(-c2ccccc2-c2nnn[nH]2)cc1 [LOSARTAN]	1.2	–
7	–	Cc1ccc2c(O)c(-c3ccccc3)c(=O)n(Cc3ccc(-c4ccccc4-c4nn[nH]n4)cc3)c2n1	–	–
6.6	–	CCCCc1c(O)c2ccc(OC)cc2n(Cc2ccc(-c3ccccc3C(=O)O)cc2)c1=O	–	–
6.3	–	COc1ccc2c(O)cc(=O)n(Cc3ccc(-c4ccccc4C(=O)O)cc3)c2c1	–	–
